According to the kinase profiling compilation of Christmann-Franck et al. (2016):

Legend:
Assay in all cases: radiometric filter-binding kinase assay, Kinase HotSpot
Conditions in all cases: compound 0.5 µM; ATP 10 µM
RPS6KA2 KD1 KD2 (human) = RPS6KA2 KD1 KD2 (human) (UniProt Q15349)
CAMK2D (human) = CAMK2D (human) (UniProt Q13557)
CAMK1G (human) = CAMK1G (human) (UniProt Q96NX5)
MAPK3 (human) = MAPK3 (human) (UniProt P27361)
TGFBR1 (human) = TGFBR1 (human) (UniProt P36897)
IRAK4 (human) = IRAK4 (human) (UniProt Q9NWZ3)
PIM2 (human) = PIM2 (human) (UniProt Q9P1W9)
AXL (human) = AXL (human) (UniProt P30530)
MAP3K9 (human) = MAP3K9 (human) (UniProt P80192)
EPHA4 (human) = EPHA4 (human) (UniProt P54764)
RIPK2 (human) = RIPK2 (human) (UniProt O43353)
CDK9 CCNK (human) = CDK9 CCNK (human) (UniProt O75909+P50750)
Sequence of CDK9 CCNK (human) (O75909 whole entry, looked up): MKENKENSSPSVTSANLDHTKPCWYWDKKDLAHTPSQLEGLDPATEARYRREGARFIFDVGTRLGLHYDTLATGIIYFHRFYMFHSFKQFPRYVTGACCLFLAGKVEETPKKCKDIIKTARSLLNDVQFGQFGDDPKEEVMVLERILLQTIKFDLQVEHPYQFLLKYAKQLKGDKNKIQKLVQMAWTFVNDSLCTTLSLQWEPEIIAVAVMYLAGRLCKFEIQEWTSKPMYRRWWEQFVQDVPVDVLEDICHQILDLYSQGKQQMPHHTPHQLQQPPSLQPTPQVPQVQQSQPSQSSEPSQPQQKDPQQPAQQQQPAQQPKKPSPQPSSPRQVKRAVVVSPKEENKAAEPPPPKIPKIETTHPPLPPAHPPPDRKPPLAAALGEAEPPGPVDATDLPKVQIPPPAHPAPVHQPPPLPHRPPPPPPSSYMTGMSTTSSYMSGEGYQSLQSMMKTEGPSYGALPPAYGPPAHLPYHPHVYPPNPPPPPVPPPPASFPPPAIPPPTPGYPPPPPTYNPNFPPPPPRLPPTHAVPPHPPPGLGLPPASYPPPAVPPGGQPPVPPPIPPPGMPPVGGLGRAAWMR
Sequence of CDK9 CCNK (human) (P50750 whole entry, looked up): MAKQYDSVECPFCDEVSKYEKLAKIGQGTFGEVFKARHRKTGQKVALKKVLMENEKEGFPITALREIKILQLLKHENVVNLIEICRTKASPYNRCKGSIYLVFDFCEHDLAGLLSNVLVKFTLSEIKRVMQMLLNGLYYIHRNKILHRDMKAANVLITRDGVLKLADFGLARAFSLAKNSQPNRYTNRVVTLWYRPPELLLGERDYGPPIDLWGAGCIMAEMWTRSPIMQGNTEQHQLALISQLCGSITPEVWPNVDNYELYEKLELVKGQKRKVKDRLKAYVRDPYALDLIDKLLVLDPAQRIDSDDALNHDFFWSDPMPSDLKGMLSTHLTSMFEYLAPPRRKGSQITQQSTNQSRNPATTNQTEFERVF

BRSK2 (human) = BRSK2 (human) (UniProt Q8IWQ3)
STK4 (human) = STK4 (human) (UniProt Q13043)
MAP4K4 (human) = MAP4K4 (human) (UniProt O95819)
TXK (human) = TXK (human) (UniProt P42681)
CSK (human) = CSK (human) (UniProt P41240)
CDK5 CDK5R1 p35 (human) = CDK5 CDK5R1 p35 (human) (UniProt Q00535+Q15078)
RAF1 (human) = RAF1 (human) (UniProt P04049)
Sequence of RAF1 (human) (P04049 whole entry, looked up): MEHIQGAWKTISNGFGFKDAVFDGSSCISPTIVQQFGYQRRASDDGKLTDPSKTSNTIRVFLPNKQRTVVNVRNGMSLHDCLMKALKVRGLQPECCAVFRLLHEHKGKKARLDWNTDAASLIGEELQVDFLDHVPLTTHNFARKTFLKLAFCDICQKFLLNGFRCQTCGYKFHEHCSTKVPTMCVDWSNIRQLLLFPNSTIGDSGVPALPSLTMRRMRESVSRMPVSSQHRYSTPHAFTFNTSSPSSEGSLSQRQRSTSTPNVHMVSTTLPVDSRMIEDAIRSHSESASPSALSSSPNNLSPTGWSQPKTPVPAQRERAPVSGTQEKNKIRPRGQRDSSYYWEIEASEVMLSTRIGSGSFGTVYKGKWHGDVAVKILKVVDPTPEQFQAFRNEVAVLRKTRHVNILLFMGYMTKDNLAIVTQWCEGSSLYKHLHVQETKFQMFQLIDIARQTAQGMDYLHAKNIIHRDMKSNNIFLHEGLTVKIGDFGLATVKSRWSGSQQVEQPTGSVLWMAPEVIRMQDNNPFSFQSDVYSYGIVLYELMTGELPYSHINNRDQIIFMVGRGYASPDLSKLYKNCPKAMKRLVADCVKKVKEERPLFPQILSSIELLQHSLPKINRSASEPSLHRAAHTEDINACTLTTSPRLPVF

MAPK1 (human) = MAPK1 (human) (UniProt P28482)
PKN1 (human) = PKN1 (human) (UniProt Q16512)
Sequence of PKN1 (human) (Q16512 whole entry, looked up): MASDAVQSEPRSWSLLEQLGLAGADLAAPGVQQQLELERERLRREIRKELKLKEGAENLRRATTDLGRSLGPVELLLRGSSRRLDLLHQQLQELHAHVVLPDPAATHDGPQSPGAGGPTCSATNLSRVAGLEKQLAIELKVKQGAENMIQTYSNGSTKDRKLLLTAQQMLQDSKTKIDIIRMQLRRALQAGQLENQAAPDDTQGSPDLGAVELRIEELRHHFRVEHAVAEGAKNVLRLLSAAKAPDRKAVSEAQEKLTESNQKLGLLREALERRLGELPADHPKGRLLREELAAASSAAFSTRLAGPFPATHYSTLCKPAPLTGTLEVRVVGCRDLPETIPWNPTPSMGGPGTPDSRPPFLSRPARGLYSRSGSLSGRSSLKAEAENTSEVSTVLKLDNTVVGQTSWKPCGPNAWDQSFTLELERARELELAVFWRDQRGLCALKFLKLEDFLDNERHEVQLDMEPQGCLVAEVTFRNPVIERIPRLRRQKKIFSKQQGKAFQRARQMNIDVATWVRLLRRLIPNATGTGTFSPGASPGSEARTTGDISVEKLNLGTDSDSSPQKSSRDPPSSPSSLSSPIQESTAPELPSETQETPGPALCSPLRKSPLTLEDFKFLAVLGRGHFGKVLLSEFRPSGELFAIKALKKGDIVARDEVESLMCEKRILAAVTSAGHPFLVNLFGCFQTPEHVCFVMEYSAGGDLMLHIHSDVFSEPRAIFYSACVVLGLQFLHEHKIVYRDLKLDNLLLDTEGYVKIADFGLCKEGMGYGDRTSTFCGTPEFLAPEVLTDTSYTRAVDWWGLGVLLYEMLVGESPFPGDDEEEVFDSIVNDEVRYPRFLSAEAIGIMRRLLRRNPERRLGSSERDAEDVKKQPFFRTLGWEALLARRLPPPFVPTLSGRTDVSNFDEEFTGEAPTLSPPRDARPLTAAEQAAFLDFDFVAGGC

TEK (human) = TEK (human) (UniProt Q02763)
MAP3K7 TAB1 (human) = MAP3K7 TAB1 (human) (UniProt O43318+Q15750)
MAP3K5 (human) = MAP3K5 (human) (UniProt Q99683)
CAMK2B (human) = CAMK2B (human) (UniProt Q13554)
DAPK1 (human) = DAPK1 (human) (UniProt P53355)
Sequence of DAPK1 (human) (P53355 whole entry, looked up): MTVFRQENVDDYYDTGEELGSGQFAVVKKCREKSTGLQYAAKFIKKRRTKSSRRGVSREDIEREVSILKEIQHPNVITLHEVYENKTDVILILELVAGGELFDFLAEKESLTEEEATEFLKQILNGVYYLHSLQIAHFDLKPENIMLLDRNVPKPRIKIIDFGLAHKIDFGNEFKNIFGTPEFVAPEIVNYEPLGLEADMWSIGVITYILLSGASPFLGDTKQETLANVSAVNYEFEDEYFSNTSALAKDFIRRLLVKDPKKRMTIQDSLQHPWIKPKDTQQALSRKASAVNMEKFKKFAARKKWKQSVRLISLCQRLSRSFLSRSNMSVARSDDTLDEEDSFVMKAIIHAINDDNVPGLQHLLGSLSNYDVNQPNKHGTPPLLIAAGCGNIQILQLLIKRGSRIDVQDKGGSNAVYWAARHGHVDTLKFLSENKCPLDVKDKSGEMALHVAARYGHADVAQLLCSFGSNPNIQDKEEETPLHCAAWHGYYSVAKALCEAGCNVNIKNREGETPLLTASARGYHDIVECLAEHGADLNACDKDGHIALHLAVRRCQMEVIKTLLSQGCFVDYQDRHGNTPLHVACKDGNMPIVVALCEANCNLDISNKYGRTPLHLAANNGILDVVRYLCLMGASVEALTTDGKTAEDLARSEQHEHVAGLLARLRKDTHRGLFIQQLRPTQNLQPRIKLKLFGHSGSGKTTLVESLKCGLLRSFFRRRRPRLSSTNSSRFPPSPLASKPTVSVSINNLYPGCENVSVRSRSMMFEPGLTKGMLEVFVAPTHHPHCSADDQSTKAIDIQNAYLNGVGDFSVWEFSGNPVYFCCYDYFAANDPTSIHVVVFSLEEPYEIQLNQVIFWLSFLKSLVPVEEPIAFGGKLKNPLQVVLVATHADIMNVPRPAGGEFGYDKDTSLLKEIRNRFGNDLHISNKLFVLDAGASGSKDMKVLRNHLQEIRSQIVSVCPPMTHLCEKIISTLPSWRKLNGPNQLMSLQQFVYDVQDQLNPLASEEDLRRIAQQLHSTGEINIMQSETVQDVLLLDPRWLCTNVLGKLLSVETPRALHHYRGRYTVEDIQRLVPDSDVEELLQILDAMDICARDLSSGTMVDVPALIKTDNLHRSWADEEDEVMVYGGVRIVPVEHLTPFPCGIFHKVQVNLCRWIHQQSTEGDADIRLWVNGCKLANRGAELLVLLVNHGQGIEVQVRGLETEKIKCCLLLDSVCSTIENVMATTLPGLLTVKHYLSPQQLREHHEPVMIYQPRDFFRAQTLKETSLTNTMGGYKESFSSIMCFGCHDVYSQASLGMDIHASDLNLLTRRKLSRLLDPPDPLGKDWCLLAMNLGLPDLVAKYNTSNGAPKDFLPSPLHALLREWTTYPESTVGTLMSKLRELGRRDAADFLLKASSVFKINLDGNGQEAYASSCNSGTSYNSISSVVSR

CAMK1 (human) = CAMK1 (human) (UniProt Q14012)
PHKG1 (human) = PHKG1 (human) (UniProt Q16816)
FES (human) = FES (human) (UniProt P07332)
DYRK2 (human) = DYRK2 (human) (UniProt Q92630)
CDK6 CCND1 (human) = CDK6 CCND1 (human) (UniProt Q00534+P24385)
LTK (human) = LTK (human) (UniProt P29376)
AKT3 (human) = AKT3 (human) (UniProt Q9Y243)
STK33 (human) = STK33 (human) (UniProt Q9BYT3)
AURKC (human) = AURKC (human) (UniProt Q9UQB9)
PTK2 (human) = PTK2 (human) (UniProt Q05397)
PRKCZ (human) = PRKCZ (human) (UniProt Q05513)
Sequence of PRKCZ (human) (Q05513 whole entry, looked up): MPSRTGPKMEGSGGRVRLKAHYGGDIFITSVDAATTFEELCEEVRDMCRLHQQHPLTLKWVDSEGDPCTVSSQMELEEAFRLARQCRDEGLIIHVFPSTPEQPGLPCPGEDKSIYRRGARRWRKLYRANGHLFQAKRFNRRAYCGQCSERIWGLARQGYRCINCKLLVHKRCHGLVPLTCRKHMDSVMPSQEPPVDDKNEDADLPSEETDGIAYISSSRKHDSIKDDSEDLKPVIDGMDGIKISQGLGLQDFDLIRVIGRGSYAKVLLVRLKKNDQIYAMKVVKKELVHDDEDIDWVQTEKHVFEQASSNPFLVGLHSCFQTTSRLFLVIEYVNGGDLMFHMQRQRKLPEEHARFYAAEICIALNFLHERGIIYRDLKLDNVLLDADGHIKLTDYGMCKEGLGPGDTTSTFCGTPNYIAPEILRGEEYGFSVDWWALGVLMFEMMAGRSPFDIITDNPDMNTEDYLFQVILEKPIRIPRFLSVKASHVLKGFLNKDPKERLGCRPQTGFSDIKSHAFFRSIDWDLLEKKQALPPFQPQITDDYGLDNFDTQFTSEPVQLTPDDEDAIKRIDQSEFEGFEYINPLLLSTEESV

RPS6KB1 (human) = RPS6KB1 (human) (UniProt P23443)
STK17A (human) = STK17A (human) (UniProt Q9UEE5)
Sequence of STK17A (human) (Q9UEE5 whole entry, looked up): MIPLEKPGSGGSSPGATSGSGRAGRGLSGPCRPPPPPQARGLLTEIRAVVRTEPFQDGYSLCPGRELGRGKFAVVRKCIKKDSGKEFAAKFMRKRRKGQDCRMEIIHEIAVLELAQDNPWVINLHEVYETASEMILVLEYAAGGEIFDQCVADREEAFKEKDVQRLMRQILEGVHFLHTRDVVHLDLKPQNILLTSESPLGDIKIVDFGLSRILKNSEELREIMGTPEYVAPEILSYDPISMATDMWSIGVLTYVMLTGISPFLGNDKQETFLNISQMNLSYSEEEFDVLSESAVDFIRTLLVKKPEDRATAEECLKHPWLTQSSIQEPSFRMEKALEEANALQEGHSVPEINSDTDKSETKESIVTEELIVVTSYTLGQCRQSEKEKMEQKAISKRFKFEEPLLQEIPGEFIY

CSNK2A2 (human) = CSNK2A2 (human) (UniProt P19784)
CDK1 CCNB1 (human) = CDK1 CCNB1 (human) (UniProt P06493+P14635)

Compound | residual activity (RPS6KA2 KD1 KD2 (human)) | residual activity (CAMK2D (human)) | residual activity (CAMK1G (human)) | residual activity (MAPK3 (human)) | residual activity (TGFBR1 (human)) | residual activity (IRAK4 (human)) | residual activity (PIM2 (human)) | residual activity (AXL (human)) | residual activity (RIPK2 (human)) | residual activity (CDK9 CCNK (human)) | residual activity (BRSK2 (human)) | residual activity (STK4 (human)) | residual activity (MAP4K4 (human)) | residual activity (CSK (human)) | residual activity (CDK5 CDK5R1 p35 (human)) | residual activity (MAP3K5 (human)) | residual activity (CAMK2B (human)) | residual activity (LTK (human)) | residual activity (AKT3 (human)) | residual activity (STK33 (human)) | further results
O=c1c(-c2ccc(F)cc2)c(-c2ccncc2)[nH]n1-c1ccc(Cl)cc1 | 91.8% | 95.6% | 104% | 103% | 101% | 81.9% | 114% | 113% | 50.2% | 93.4% | 90.8% | 90% | 93.5% | 86.1% | 104% | 115% | 93.7% | 75.5% | 94.3% | 101% | residual activity (MAP3K9 (human)): 103%; residual activity (EPHA4 (human)): 93.5%; residual activity (TXK (human)): 94.4%; residual activity (RAF1 (human)): 61.4%; residual activity (MAPK1 (human)): 77.3%; residual activity (PKN1 (human)): 92.4%; residual activity (TEK (human)): 94.4%; residual activity (MAP3K7 TAB1 (human)): 100%; residual activity (DAPK1 (human)): 84.5%; residual activity (CAMK1 (human)): 94.4%; residual activity (PHKG1 (human)): 94.1%; residual activity (FES (human)): 92.3%; residual activity (DYRK2 (human)): 86.9%; residual activity (CDK6 CCND1 (human)): 92.3%; residual activity (AURKC (human)): 100%; residual activity (PTK2 (human)): 95.1%; residual activity (PRKCZ (human)): 99%; residual activity (RPS6KB1 (human)): 89.9%; residual activity (STK17A (human)): 105%
N/C(=N\N=C/c1ccc(-c2cccc([N+](=O)[O-])c2)o1)N[N+](=O)[O-] | 94.5% | 90.1% | 104% | 88.4% | 96.6% | 87.3% | 106% | 100% | 106% | 95.7% | 106% | 96.5% | 95.6% | 98.5% | 89.2% | 92.5% | 100% | 102% | 94.3% | 102% | residual activity (CSNK2A2 (human)): 107%; residual activity (TXK (human)): 98.3%; residual activity (RAF1 (human)): 98.1%; residual activity (MAPK1 (human)): 99.7%; residual activity (PKN1 (human)): 93.9%; residual activity (TEK (human)): 99.6%; residual activity (MAP3K7 TAB1 (human)): 91.5%; residual activity (CDK1 CCNB1 (human)): 87.9%; residual activity (DAPK1 (human)): 97.8%; residual activity (CAMK1 (human)): 106%; residual activity (PHKG1 (human)): 101%; residual activity (FES (human)): 101%; residual activity (DYRK2 (human)): 93.1%; residual activity (CDK6 CCND1 (human)): 100%; residual activity (AURKC (human)): 90.5%; residual activity (PRKCZ (human)): 90.1%; residual activity (RPS6KB1 (human)): 100%; residual activity (STK17A (human)): 100%
CN[C@@H]1C[C@H]2O[C@@](C)([C@@H]1OC)n1c3ccccc3c3c4c(c5c6ccccc6n2c5c31)C(=O)NC4 | – | 3.05% | – | – | – | – | – | – | – | 9.24% | 3.53% | -0.197% | – | 8.01% | 1.92% | 4.72% | 1.64% | 0.543% | 2.97% | 10.7% | –
COc1cc2c(Nc3ccc(Br)cc3F)ncnc2cc1OCC1CCN(C)CC1 | 85.9% | 95.8% | 101% | 102% | 102% | 35.3% | 99.4% | 55% | 23.4% | – | 103% | 103% | 79.8% | 54.4% | 107% | 102% | 98.2% | 64.6% | 100% | 85.1% | residual activity (CSNK2A2 (human)): 96.5%; residual activity (MAP3K9 (human)): 96.1%; residual activity (TXK (human)): 57.5%; residual activity (RAF1 (human)): 81.1%; residual activity (MAPK1 (human)): 99.1%; residual activity (PKN1 (human)): 103%; residual activity (TEK (human)): 50.8%; residual activity (MAP3K7 TAB1 (human)): 93.9%; residual activity (CDK1 CCNB1 (human)): 102%; residual activity (DAPK1 (human)): 105%; residual activity (CAMK1 (human)): 81.6%; residual activity (PHKG1 (human)): 55.5%; residual activity (FES (human)): 104%; residual activity (DYRK2 (human)): 97.2%; residual activity (CDK6 CCND1 (human)): 98.7%; residual activity (PTK2 (human)): 100%; residual activity (PRKCZ (human)): 97.8%; residual activity (STK17A (human)): 92.4%
